From patent US20230416224A1, “PROCESSES FOR PREPARING ARIMOCLOMOL CITRATE AND INTERMEDIATES THEREOF” (ZEVRA DENMARK A/S, priority 2020, published 2023)

Legend:
[1] = Stability of ORZY-04 on drying; type: physicochemical; settings: 168 h of drying at 45° C. in vacuum
Procedure: A citric acid solution was prepared by charging citric acid (15.01 g, […]) and MeOH (100 mL) in a separate container and stirring for 5 min. at 20° C. The citric acid solution was then charged to the container containing the reaction solution, and the mixture was cooled to 0° C. and stirred for at least 12 h at 0° C. ORZY-04 was then isolated by filtration of the obtained suspension, and washed with MeOH (40 mL). Finally, the solids were dried at 45° C. in vacuum.

[2] = type: in vivo, human
Source text: The stability permits that the permeability of arimoclomol is high based on urinary recovery in human mass balance trial.

[3] = set-up: species or system dogs; settings: dog, in vivo
[4] = set-up: species or system human; settings: in vivo
Procedure: The PK parameters of arimoclomol after single dose and multiple dose administrations of arimoclomol were studied. After single- and multiple-dose oral administration of arimoclomol, the overall median tmax was 0.25 to 3.00 hours.

[5] = Particle size distribution of ORZY-05 by static automated imaging (Morphologi 4); type: physicochemical; settings: ORZY-05 particles
Procedure: The materials and methods were essentially as in Example 7. In the present example, the cooling time of the cooling step of from 30° C. to 0° C. subsequent to addition of acetone was varied and its influence on the particle size of ORZY-05 was determined. The cooling time is a measure of how long it takes to reach 0° C. from 30° C. The particle size distribution (PSD) data shown in Table 3 were acquired using static automated imaging (Morphology 4).
Morphologi 4: The Particle size distribution of Arimoclomol citrate (ORZY-05) was also measured using a Malvern Morphologi 4 equipment.
Wet measurement was used for the needle shaped particles. […] Measurements were made using a thin path wet cell (75*75 mm). Samples were prepared by adding 20 mL of dispersant to 10 mg of API, followed by 30 s of stirring and 2 min of sonication in order to break the agglomerates. A microscope magnifier of X10 or X20 was used, and segmentation sharp edge and/or thresholding was used to improve the focus microscope focus.

[6] = Particle size distribution of ORZY-05 by Malvern Mastersizer 3000; type: physicochemical; settings: ORZY-05 particles, Malvern Mastersizer 3000, volume distribution
Procedure: Further batches of ORZY-05 were prepared essentially as in Example 7 and the ORZY-05 particles were examined using Malvern Mastersizer 3000 as described in Example 11.
Malvern Mastersizer 3000: Particle size distribution of Arimoclomol citrate (ORZY-05) was determined by light scattering using a Malvern Mastersizer 3000 particle size analyzer (Malvern Instruments Ltd, Grovewood Road, Malvern, Worcestershire WR14 1XZ, United Kingdom) with a Hydro MV wet-dispersion unit attached. 2-Propanol with 1.8 g/L SPAN-85 additive was used as a dispersion medium (“dispersant”) and added to the dispersion unit. Prior to sample addition, the background counts of the system were determined by circulating the dispersant through the measurement cell under measurement conditions (2500 rpm stirrer speed). Samples for analysis were prepared by adding a suitable amount of Arimoclomol citrate to a 10 mL vial and pre-dispersing it with dispersant under light agitation for a few seconds. The pre-dispersed sample was then pipetted into the Hydro MV dispersion unit filled with dispersant to meet a laser obscuration range of 10-15%. A single-use PE pipette was used for this and representative sampling from the 10 mL vial was ensured by continuous agitation. […] Volume distributions were obtained and the D10, D50 and D90 were calculated from these distributions and reported. For each sample, a single sample preparation was analyzed using red light measurement only. Upon measurement completion, the sample cell was emptied and cleaned.

Structure (SMILES) | Number CE Diameter D10 [5] | Number CE Diameter D50 [5] | Number CE Diameter D90 [5] | Number CE Diameter Mean [5] | Number Length D10 [5] | Number Length D50 [5] | Number Length D90 [5] | Volume CE Diameter D10 [5] | Volume CE Diameter D50 [5] | Volume CE Diameter D90 [5] | Volume CE diameter D[3,2] [5] | Volume CE diameter D[4,3] [5] | D10 [6] | D50 [6] | D90 [6] | further results
[O-][n+]1cccc(/C(Cl)=N/OC[C@H](O)CN2CCCCC2)c1 [ORZY-04] |  |  |  |  |  |  |  |  |  |  |  |  |  |  |  | stability on drying [1]: stable
[O-][n+]1cccc(C(Cl)=NOC[C@H](O)CN2CCCCC2)c1 [arimoclomol, N-{[(2R)-2-hydroxy-3-piperidin-1-ylpropyl]oxy}pyridine-3-carboximidoyl chloride 1-oxide] |  |  |  |  |  |  |  |  |  |  |  |  |  |  |  | drug-related material recovered in faeces ([2]; in vivo): 12%; drug-related material recovered in the urine ([2]; in vivo): 77.5%; permeability ([2]; not told): high; absolute bioavailability [3]: 75%; PK parameters (Cmax and AUC0-8) versus dose [4]: increase in proportion to the dose; absorption ([4]; po): rapid and extensive
O=C(O)CC(O)(CC(=O)O)C(=O)O.[O-][n+]1cccc(/C(Cl)=N/OC[C@H](O)CN2CCCCC2)c1 [compound 1002, arimoclomol citrate] | 2.45 μm | 5.61 μm | 15.01 μm | 7.71 μm | 3.46 μm | 7.37 μm | 22.17 μm | 12.39 μm | 32.12 μm | 73.60 μm | 24.24 μm | 39.38 μm | 14.00 μm | 53.00 μm | 118.00 μm | 
O=C(O)CC(O)(CC(=O)O)C(=O)O.[O-][n+]1cccc(/C(Cl)=N/OC[C@H](O)CN2CCCCC2)c1 [compound 1003, arimoclomol citrate] | 0.89 μm | 3.34 μm | 14.14 μm | 5.79 μm | 4.20 μm | 9.50 μm | 25.49 μm | 10.66 μm | 20.58 μm | 34.54 μm | 17.52 μm | 22.10 μm | 6.00 μm | 17.00 μm | 47.00 μm | 
O=C(O)CC(O)(CC(=O)O)C(=O)O.[O-][n+]1cccc(/C(Cl)=N/OC[C@H](O)CN2CCCCC2)c1 [compound 1004, arimoclomol citrate] | 1.05 μm | 2.86 μm | 13.33 μm | 5.31 μm | 2.82 μm | 6.18 μm | 24.80 μm | 12.62 μm | 25.00 μm | 43.46 μm | 20.53 μm | 27.06 μm | 8.00 μm | 22.00 μm | 68.00 μm | 
